This note sets out measurements from patent publication US20230233514A1, “ANTIVIRAL COMPOUNDS AND METHODS OF USING THE SAME” (priority 2020, published 2023).

Data set [1] relates to SARS-CoV-2. The data set is classed as cell-based.
Data set [2] concerns Vero E6 cells. Particulars: 48 hours, CellTiterGlo. On the technique in general: ATP-based viability assays read luminescence as a measure of living cells.
Data set [3] deals with SARS-CoV-2. Format: cell-based. The following applies: compound 10 and 31.6 μM, MOI 0.01, 72 hours.
In data set [4] the test system is Vero E6 cells.
[5] abbreviates: 1 hour pre-treatment, 1 nM-100 μM, MOI 0.05, 48 hours, Vero E6 cells.

Read-outs that look alike come from different tables or passages of the source.

Turning to `O=c1cc(-c2ccc(O)c(-c3c(O)cc(O)c4c(=O)cc(-c5ccc(O)cc5)oc34)c2)oc2cc(O)cc(O)c12` [Amentoflavone], in data set [1] (setting [5]), the “effect on Viral Load (viral burden)” value is “reduction in Viral Load levels”. For `COc1ccc(-c2cc(=O)c3c(O)cc(O)cc3o2)cc1-c1c(O)cc(O)c2c(=O)cc(-c3ccc(O)cc3)oc12` [Bilobetin], the “effect on Viral Load (viral burden)” value in data set [1] (setting [5]) is given as “reduction in Viral Load levels”. Turning to `C[C@@H]1CC[C@@]2(OC1)O[C@H]1C[C@H]3[C@@H]4CC=C5C[C@@H](O[C@@H]6O[C@H](CO)[C@@H](O[C@@H]7O[C@@H](C)[C@H](O)[C@@H](O)[C@H]7O)[C@H](O)[C@H]6O[C@@H]6O[C@@H](C)[C@H](O)[C@@H](O)[C@H]6O)CC[C@]5(C)[C@H]4CC[C@]3(C)[C@H]1[C@@H]2C` [Dioscin], the “effect on Viral Load (viral burden)” value in data set [1] (setting [5]) was “reduction in Viral Load levels”. Moreover, in data set [2], the “concentrations that did not significantly impact Vero E6 cell viability compared to the DMSO treated control” value was “less than or equal to 0.1 μM” and the “toxicity observed at (and above) concentration” value is at least 1 µM. In the case of `O=c1oc2c(O)c(O)cc3c(=O)oc4c(O)c(O)cc1c4c23` [Ellagic Acid], in data set [3], the “Remdesivir concentration at which the compound synergized” value is at most 0.625 µM and the “combined effect with Remdesivir on host cell viability” value was “synergized”. As to `CN1C[C@@H](C(=O)N[C@]2(C)O[C@@]3(O)[C@@H]4CCCN4C(=O)[C@H](Cc4ccccc4)N3C2=O)C=C2c3cccc4[nH]cc(c34)C[C@H]21` [Ergotamine], the “effect on Viral Load (viral burden)” value in data set [1] (setting [5]) was “reduction in Viral Load levels”. On the same count and under the same terms, the entry for `COc1cc(O)c2c(=O)cc(-c3ccc(OC)c(-c4c(O)cc(O)c5c(=O)cc(-c6ccc(O)cc6)oc45)c3)oc2c1` [Ginkgetin] is “reduction in Viral Load levels”. As to `Oc1cc(O)c2c(c1)O[C@H](c1ccc(O)c(O)c1)[C@H](O)[C@H]2c1c(O)cc(O)c2c1O[C@H](c1ccc(O)c(O)c1)[C@H](O)C2` [Procyanidin B2], the “effect on Viral Load (viral burden)” value in data set [1] (setting [5]) is “did not show an effect”. Further, in data set [4], the “effect on Host Cell Number (cell viability)” value (from here on “effect on Host Cell Number”) is given as “did not show an effect”.

For the molecule `CC1OC(OCC2OC(Oc3c(-c4ccc(O)cc4)oc4cc(OC5OC(C)C(O)C(O)C5O)cc(O)c4c3=O)C(O)C(O)C2O)C(O)C(O)C1O` (stereo not shown) [Robinin], in data set [1] (setting [5]), the “effect on Viral Load (viral burden)” value is given as “did not show an effect”. Besides, in data set [4], the “effect on Host Cell Number” value was “did not show an effect”. As for `C[C@@H]1O[C@@H](OC[C@H]2O[C@@H](Oc3c(-c4ccc(O)c(O)c4)oc4cc(O)cc(O)c4c3=O)[C@H](O)[C@@H](O)[C@@H]2O)[C@H](O)[C@H](O)[C@H]1O` [Rutin], the “effect on Host Cell Number” value in data set [4] is recorded as “did not show an effect”.

For the molecule `O=C(O[C@H]1Cc2c(O)cc(O)cc2O[C@H]1c1cc(O)c(O)c2c(=O)c(O)cc([C@H]3Oc4cc(O)cc(O)c4C[C@H]3O)cc12)c1cc(O)c(O)c(O)c1` [Theaflavin-3-gallate, Theaflavin 3-gallate], in data set [1] (setting [5]), the “effect on Viral Load (viral burden)” value is on record as “reduction in Viral Load levels”. `O=c1c(O)cc([C@H]2Oc3cc(O)cc(O)c3C[C@H]2O)cc2c([C@H]3Oc4cc(O)cc(O)c4C[C@H]3O)cc(O)c(O)c12` [Theaflavin]: in data set [1] (setting [5]), the “effect on Viral Load (viral burden)” value was “did not show an effect”. Further, the “effect on Host Cell Number” value in data set [4] is listed as “did not show an effect”.

As for `O=C(/C=C/c1ccc(O)cc1)OC[C@H]1O[C@@H](Oc2c(-c3ccc(O)cc3)oc3cc(O)cc(O)c3c2=O)[C@H](O)[C@@H](O)[C@@H]1O` [Tiliroside], the “effect on Host Cell Number” value in data set [4] is “did not show an effect”. Besides, in data set [2], the “concentrations that only mildly impacted Vero E6 cell viability compared to the DMSO treated control” value is recorded as “less than or equal to 10 μM” and the “toxicity observed at (and above) concentration” value is at least 100 µM. With `O=c1oc2cc(O)ccc2c2ccc(O)cc12` [Urolithin A], in data set [3], the “Remdesivir concentration at which the compound synergized” value was at most 1.25 µM and the “combined effect with Remdesivir on host cell viability” value was “synergized”. Consider Hypericin, for which, in data set [1] (setting [5]), the “effect on Viral Load (viral burden)” value is recorded as “reduction in Viral Load levels”. Take Miquelianin/Quercetin 3-glucuronide: the “effect on Viral Load (viral burden)” value in data set [1] is on record as “did not show an effect”. As for Punicalagin, in data set [1] (setting [5]), the “effect on Viral Load (viral burden)” value is given as “reduction in Viral Load levels”.
